According to the NIST ThermoML archive (doi:10.1016/j.tca.2018.04.014):
Numbers after ± are expanded uncertainties.

Tests used:
[1] = Molar enthalpy of transition or fusion; settings: DSC
[2] = DSC

Molar enthalpy of transition or fusion ([1]; Crystal 2) [kcal/mol] | Molar enthalpy of transition or fusion ([1]; Crystal 3) [kcal/mol] | Triple point temperature ([2]; Crystal 1) [K] | Triple point temperature ([2]; Crystal 2) [K] | Triple point temperature ([2]; Crystal 3) [K] | Compound
0.724 ± 0.174 | 0.179 ± 0.172 | 481.6 ± 3.1 | 346.7 ± 3.1 | 213.5 ± 3.1 | CC1(C)[C@@H]2CC[C@@]1(C)[C@@H](O)C2 [d-borneol]
0.715 ± 0.174 | 0.172 ± 0.172 | 479.7 ± 3.1 | 347.4 ± 3.1 | 212.3 ± 3.1 | CC1(C)[C@H]2CC[C@]1(C)[C@H](O)C2 [(1S-endo)-1,7,7-trimethylbicyclo[2.2.1]heptan-2-ol]
0.0382 ± 0.17 | 3.17 ± 0.184 | 453.9 ± 3.1 | 375.3 ± 3.1 | 246.3 ± 3.1 | CC1(C)[C@H]2CC[C@]1(C)C(=O)C2 [(1S)-1,7,7-trimethylbicyclo[2.2.1]heptan-2-one]
0.0359 ± 0.17 | 2.68 ± 0.182 | 452.7 ± 3.1 | 372.3 ± 3.1 | 242.8 ± 3.1 | CC1(C)[C@@H]2CC[C@@]1(C)C(=O)C2 [d-camphor]
